Data published in patent US11053204B2, “Pyrimidinyloxy benzene derivatives as herbicides” (FMC Corporation, priority 2015, dated 2021).

What was measured:
Assay type in all cases: in vivo
[1] = system: ragweed (common ragweed, Ambrosia elatior); test: Test A preemergence, visual injury rating; conditions: 0 to 100 scale (0 no effect, 100 complete control)
Procedure, shortened: (§1)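 Scoring: eye-based comparison with untreated controls, 0 for no effect through 100 for complete control, at about day 10. Treatments: directed soil spray preemergence; foliar spray postemergence on 2–10 cm plants at the one- to two-leaf stage. Medium: loam soil with sand.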

[2] = system: giant foxtail (Setaria faberii); test: Test A preemergence, visual injury rating; conditions: 0 to 100 scale (0 no effect, 100 complete control)
Procedure, shortened: as §1

[3] = system: pigweed (Amaranthus retroflexus); test: Test A preemergence, visual injury rating; conditions: 0 to 100 scale (0 no effect, 100 complete control)
Procedure, shortened: as §1

[4] = system: kochia (Kochia scoparia); test: Test A preemergence, visual injury rating; conditions: 0 to 100 scale (0 no effect, 100 complete control)
Procedure, shortened: as §1

[5] = system: barnyardgrass (Echinochloa crus-galli); test: Test A preemergence, visual injury rating; conditions: 0 to 100 scale (0 no effect, 100 complete control)
Procedure, shortened: as §1

[6] = system: Italian ryegrass (Lolium multiflorum); test: Test A preemergence, visual injury rating; conditions: 0 to 100 scale (0 no effect, 100 complete control)
Procedure, shortened: as §1

[7] = system: ragweed (common ragweed, Ambrosia elatior); test: Test A postemergence, visual injury rating; conditions: 0 is no effect, 100 is complete control
Procedure, shortened: as §1

[8] = system: corn (Zea mays); test: Test A postemergence, visual injury rating; conditions: 0 is no effect, 100 is complete control
Procedure, shortened: as §1

[9] = system: giant foxtail (Setaria faberii); test: Test A postemergence, visual injury rating; conditions: 0 is no effect, 100 is complete control
Procedure, shortened: as §1

[10] = system: pigweed (Amaranthus retroflexus); test: Test A postemergence, visual injury rating; conditions: 0 is no effect, 100 is complete control
Procedure, shortened: as §1

[11] = system: kochia (Kochia scoparia); test: Test A postemergence, visual injury rating; conditions: 0 is no effect, 100 is complete control
Procedure, shortened: as §1

[12] = system: barnyardgrass (Echinochloa crus-galli); test: Test A postemergence, visual injury rating; conditions: 0 is no effect, 100 is complete control
Procedure, shortened: as §1

[13] = system: blackgrass (Alopecurus myosuroides); test: Test A postemergence, visual injury rating; conditions: 0 is no effect, 100 is complete control
Procedure, shortened: as §1

[14] = system: galium (catchweed bedstraw, Galium aparine); test: Test A postemergence, visual injury rating; conditions: 0 is no effect, 100 is complete control
Procedure, shortened: as §1

[15] = system: Italian ryegrass (Lolium multiflorum); test: Test A postemergence, visual injury rating; conditions: 0 is no effect, 100 is complete control
Procedure, shortened: as §1

[16] = system: wheat (Triticum aestivum); test: Test A postemergence, visual injury rating; conditions: 0 is no effect, 100 is complete control
Procedure, shortened: as §1

[17] = system: pigweed (Amaranthus retroflexus); test: Test C preemergence, plant response rating; conditions: Preemergence
[18] = 125 g ai/ha, 0 to 100 scale, approximately 10 days

Q: With N#Cc1cccc(Oc2ncc(Cl)cn2)c1CCCC(F)(F)F [Compound 72] as the compound, how does the “Ragweed plant response rating” value ([1]; 125 g ai/ha) read?
A: Its value is 0.

Q: And the “Ragweed plant response rating” value ([1]; 500 g ai/ha)?
A: The value was 10.

Q: What about the “Foxtail, Giant plant response rating” value ([2]; 125 g ai/ha) of the same compound?
A: The value was 90.

Q: And the “Foxtail, Giant plant response rating” value ([2]; 500 g ai/ha)?
A: The value was 100.

Q: And the “Pigweed plant response rating” value ([3]; 125 g ai/ha)?
A: The value was 100.

Q: And the “Pigweed plant response rating” value ([3]; 500 g ai/ha)?
A: The value was 100.

Q: What about the “Kochia plant response rating” value ([4]; 125 g ai/ha) of the same compound?
A: Its value is 90.

Q: What about the “Kochia plant response rating” value ([4]; 500 g ai/ha) of the same compound?
A: Its value is 100.

Q: And the “Barnyardgrass plant response rating” value ([5]; 125 g ai/ha)?
A: The value was 90.

Q: What about the “Barnyardgrass plant response rating” value ([5]; 500 g ai/ha) of the same compound?
A: The value was 100.

Q: What about the “Ryegrass, Italian plant response rating” value ([6]; 125 g ai/ha) of the same compound?
A: The value was 10.

Q: What about the “Ryegrass, Italian plant response rating” value ([6]; 500 g ai/ha) of the same compound?
A: Its value is 30.

Q: What about the “Ragweed plant response rating” value [7, 18] of the same compound?
A: The value was 10.

Q: And the “Ragweed plant response rating (0 to 100 scale)” value ([7]; 500 g ai/ha)?
A: Its value is 30.

Q: What about the “Corn plant response rating (0 to 100 scale)” value ([8]; 125 g ai/ha) of the same compound?
A: Its value is 50.

Q: What about the “Corn plant response rating (0 to 100 scale)” value ([8]; 500 g ai/ha) of the same compound?
A: Its value is 60.

Q: And the “Foxtail, Giant plant response rating (0 to 100 scale)” value ([9]; 125 g ai/ha)?
A: Its value is 70.

Q: And the “Foxtail, Giant plant response rating (0 to 100 scale)” value ([9]; 500 g ai/ha)?
A: Its value is 100.

Q: And the “Pigweed plant response rating” value [10, 18]?
A: The value was 100.

Q: What about the “Pigweed plant response rating (0 to 100 scale)” value ([10]; 500 g ai/ha) of the same compound?
A: The value was 100.

Q: What about the “Kochia plant response rating” value [11, 18] of the same compound?
A: Its value is 100.

Q: And the “Kochia plant response rating (0 to 100 scale)” value ([11]; 500 g ai/ha)?
A: The value was 100.

Q: What about the “Barnyardgrass plant response rating (0 to 100 scale)” value ([12]; 125 g ai/ha) of the same compound?
A: The value was 80.

Q: What about the “Barnyardgrass plant response rating (0 to 100 scale)” value ([12]; 500 g ai/ha) of the same compound?
A: The value was 100.

Q: What about the “Blackgrass plant response rating (0 to 100 scale)” value ([13]; 125 g ai/ha) of the same compound?
A: The value was 30.

Q: What about the “Blackgrass plant response rating (0 to 100 scale)” value ([13]; 500 g ai/ha) of the same compound?
A: Its value is 50.

Q: And the “Galium plant response rating (0 to 100 scale)” value ([14]; 125 g ai/ha)?
A: Its value is 80.

Q: What about the “Galium plant response rating (0 to 100 scale)” value ([14]; 500 g ai/ha) of the same compound?
A: The value was 100.

Q: What about the “Ryegrass, Italian plant response rating” value [15, 18] of the same compound?
A: Its value is 10.

Q: What about the “Ryegrass, Italian plant response rating (0 to 100 scale)” value ([15]; 500 g ai/ha) of the same compound?
A: Its value is 40.

Q: What about the “Wheat plant response rating” value [16, 18] of the same compound?
A: The value was 10.

Q: What about the “Wheat plant response rating (0 to 100 scale)” value ([16]; 500 g ai/ha) of the same compound?
A: Its value is 40.

Q: And the “Plant response rating, Pigweed” value ([17]; 125 g ai/ha, scale of 0 to 100)?
A: Its value is 100.

Q: And the “Plant response rating, Pigweed” value ([17]; 16 g ai/ha, scale 0 to 100)?
A: The value was 100.

Q: What about the “Plant response rating, Pigweed” value ([17]; 31 g ai/ha, scale 0 to 100) of the same compound?
A: Its value is 100.

Q: And the “Plant response rating, Pigweed” value ([17]; 62 g ai/ha, scale 0 to 100)?
A: The value was 100.
